The test system of this experiment is HBV. The experiment in a line: HBV in vitro test in quantitative qPCR assay (HBV DNA content in HepG2.2.15 cells). Format: cell-based. The following applies: Hepatitis B virus, HepG2.2.15, 192 h, HBV DNA by qPCR, day 8, read-out: 50% inhibitory concentration (EC50) value of HBV. As for the experimental part: HBV In Vitro Test in Quantitative qPCR Assay
The HBV DNA content in HepG2.2.15 cells was determined by real-time quantitative qPCR assay (real time-qPCR), and the inhibitory effect of the compound on HBV was evaluated by the EC50 value of the compound.
2.1 Cell line: HepG2.2.15 cells
3.1 HepG2.2.15 cells (4×10^4 cells/well) were seeded into a 96-well plate and incubated overnight at 37° C. under 5% CO2.
3.2 On the 2nd day, the compound was diluted into 8 concentrations with 3-time gradient. The compounds with different concentrations were added into the culture wells in duplicate wells. The final concentration of DMSO in the culture medium was 1%. 1 μM GLS4 was used as a 100% inhibition control, and 1% DMSO was used as a 0% inhibition control.
3.3 On the 5th day, the culture medium was replaced with a fresh medium containing the compound.
3.4 On the 8th day, the culture medium in the culture well was collected, and the DNA was extracted with a high-throughput DNA purification kit (Qiagen-51162), of which specific procedure was referred to the product specification.
3.6 15 μL of the reaction mixture was added into each well of a 96-well PCR plate, followed by addition of 10 μL of sample DNA or HBV DNA standards into each well.
3.7 PCR reaction conditions: heating at 95° C. for 10 minutes; then denaturation at 95° C. for 15 seconds, extension at 60° C. for 1 minute, a total of 40 cycles.
3.8.1 Calculation of the percentage of inhibition: % Inh.=[1−(DNA copy number in sample−DNA copy number in 1 μM GLS4)/(DNA copy number in DMSO control−DNA copy number in 1 μM GLS4)]×100
3.8.2 Calculation of EC50: The 50% inhibitory concentration (EC50) value of the compound on HBV was calculated by GraphPad Prism software.
Background: Real-time PCR tracks product formation cycle by cycle.

Structures are written as SMILES.

As for `O=C(NCCc1ccc(Cl)cc1)c1ccc2c(c1)NC(=O)c1cccn1S2(=O)=O` [WX301], the EC50 is at most 100 nM.
Regarding `Cc1cc2n(c1)S(=O)(=O)c1ccc(C(=O)NCCc3ccc(F)cc3)cc1NC2=O` [WX305], the EC50 was at most 100 nM.
With `Cc1cc2n(c1)S(=O)(=O)c1ccc(C(=O)NCc3cccnc3)cc1NC2=O` [WX306], the EC50 is at most 100 nM.
Consider `Cc1cc2n(c1)S(=O)(=O)c1ccc(C(=O)NCc3cnc(-c4ccc(C#N)cc4)s3)cc1NC2=O` [WX308], for which the EC50 is at most 100 nM.
Take `Cc1cc2n(c1)S(=O)(=O)c1ccc(C(=O)NCCC3CCCCO3)cc1NC2=O` (centres unmarked) [WX309]: the EC50 was at most 100 nM.
Take `O=C(NCCC1CCCO1)c1ccc2c(c1)NC(=O)c1cc(Br)cn1S2(=O)=O` (centres unmarked) [WX311]: the EC50 was at most 100 nM.
As for `O=C(NCCC1CCCCO1)c1ccc2c(c1)NC(=O)c1cc(Br)cn1S2(=O)=O` (centres unmarked) [WX312], the EC50 was at most 100 nM.
For the molecule `O=C(NCCC1CCCCCO1)c1ccc2c(c1)NC(=O)c1cccn1S2(=O)=O` (centres unmarked) [WX318], the EC50 was at most 100 nM.
Consider `O=C(NCCC1COCCOC1)c1ccc2c(c1)NC(=O)c1cccn1S2(=O)=O` [WX321], for which the EC50 fell in the range of 100 to 500 nM.
Then `CC(=O)N1CCOC(CCNC(=O)c2ccc3c(c2)NC(=O)c2cccn2S3(=O)=O)C1` (centres unmarked) [WX322], with at most 100 nM; and `COC(=O)N1CCOC(CCNC(=O)c2ccc3c(c2)NC(=O)c2cccn2S3(=O)=O)C1` (centres unmarked) [WX323], with at most 100 nM; and `CN1CCOC(CCNC(=O)c2ccc3c(c2)NC(=O)c2cccn2S3(=O)=O)C1` (centres unmarked) [WX326], with at most 100 nM.
As to `O=C(NCCC1COCCO1)c1ccc2c(c1)NC(=O)c1cc(CC(F)(F)F)cn1S2(=O)=O` (centres unmarked) [WX328], the EC50 was at most 100 nM.
Then `CC(C)c1cc2n(c1)S(=O)(=O)c1ccc(C(=O)NCCC3COCCO3)cc1NC2=O` (centres unmarked) [WX338], with 100 to 500 nM.

Source of the values: US11053260B2, “Tri-cycle compound and applications thereof” (FUJIAN COSUNTER PHARMACEUTICAL CO., LTD., priority 2017, dated 2021).
